According to BindingDB's records for doi:10.1021/jm00144a025 (1982):
pIC50: −log10 of the molar value.

Tests used:
[1] = molecular target: norepinephrine transporter (Mus musculus); experiment: In vitro inhibition of accumulation of (-)-[3H]Norepinephrine (NA) in mouse brain slices
[2] = molecular target: serotonin transporter (Mus musculus); experiment: In vitro inhibition of accumulation of [14C]5-HT (5-HT) in mouse brain slices

pIC50 [1]	pIC50 [2]	Compound
4.57	5.43	CN(C)C/C=C(/c1ccccc1)c1cccnc1 [cis -Dimethyl-(3-phenyl-3-pyridin-3-yl-allyl)-amine;1.5C2H4O4]
< 4.54	5.62	Cc1ccc(/C(=C/CN(C)C)c2cccnc2)cc1 [cis -Dimethyl-(3-pyridin-3-yl-3-p-tolyl-allyl)-amine;C2H4O4]
4.89	5.70	CN(C)C/C=C(/c1ccc(C(F)(F)F)cc1)c1cccnc1 [cis -Dimethyl-[3-pyridin-3-yl-3-(4-trifluoromethyl-phenyl)-allyl]-amine;C2H4O4]
5.64	6.30	CNC/C=C(\c1cccnc1)c1ccc(Cl)cc1Cl [cis-[3-(2,4-Dichloro-phenyl)-3-pyridin-3-yl-allyl]-methyl-amine;C2H4O4]
5.66	5.38	CN(C)C/C=C(\c1cccnc1)c1ccccc1Br [cis-[3-(2-Bromo-phenyl)-3-pyridin-3-yl-allyl]-dimethyl-amine;C2H4O4]
6.52	6.22	CNC/C=C(\c1cccnc1)c1ccccc1Br [cis-[3-(2-Bromo-phenyl)-3-pyridin-3-yl-allyl]-methyl-amine;C2H4O4]
6.05	5.85	CNC/C=C(\c1cccnc1)c1cccc(Br)c1 [cis-[3-(3-Bromo-phenyl)-3-pyridin-3-yl-allyl]-methyl-amine;C2H4O4]
4.96	5.59	CN(C)C/C=C(\c1cccnc1)c1cccc(Cl)c1 [cis-[3-(3-Chloro-phenyl)-3-pyridin-3-yl-allyl]-dimethyl-amine;C2H4O4]
5.66	5.80	CN(C)C/C=C(\c1cccnc1)c1cccc(F)c1 [cis-[3-(3-Fluoro-phenyl)-3-pyridin-3-yl-allyl]-dimethyl-amine;C2H4O4]
4.59	5.70	CCNC/C=C(/c1ccc(Br)cc1)c1cccnc1 [cis-[3-(4-Bromo-phenyl)-3-pyridin-3-yl-allyl]-ethyl-amine;C2H4O4]
< 4.62	4.62	CCCNC/C=C(/c1ccc(Br)cc1)c1cccnc1 [cis-[3-(4-Bromo-phenyl)-3-pyridin-3-yl-allyl]-propyl-amine;C2H4O4]
5.00	5.68	CN(C)C/C=C(/c1ccc(Cl)cc1)c1cccnc1 [cis-[3-(4-Chloro-phenyl)-3-pyridin-3-yl-allyl]-dimethyl-amine;C2H4O4]
< 4.66	6.00	CN(C)C/C=C(/c1ccc(I)cc1)c1cccnc1 [cis-[3-(4-Iodo-phenyl)-3-pyridin-3-yl-allyl]-dimethyl-amine;C2H4O4]
4.47	5.46	CC(C)Oc1ccc(/C(=C/CN(C)C)c2ccncc2)cc1 [cis-[3-(4-Isopropoxy-phenyl)-3-pyridin-4-yl-allyl]-dimethyl-amine;C2H4O4]
< 4.55	6.10	COc1ccc(/C(=C/CN(C)C)c2cccnc2)cc1 [cis-[3-(4-Methoxy-phenyl)-3-pyridin-3-yl-allyl]-dimethyl-amine;C2H4O4]
